From PubChem BioAssay (NCI)
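Assay format: 96-well plates, 48-hour exposure. At the GI50, growth is halved. TGI denotes the concentration required for complete inhibition of growth.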

What was measured:
Test in all cases: growth of human tumour cells (NCI), 48 h
HOP-62 NSCLC = tested on: HOP-62 NSCLC
MOLT-4 leukemia = tested on: MOLT-4 leukemia
A549 NSCLC = tested on: A549 NSCLC
CCRF-CEM leukemia = tested on: CCRF-CEM leukemia
SK-MEL-5 melanoma = tested on: SK-MEL-5 melanoma
SR leukemia = tested on: SR leukemia
SNB-75 CNS = tested on: SNB-75 CNS
MDA-MB-231 breast = tested on: MDA-MB-231 breast
SN12C renal = tested on: SN12C renal
NCI-H522 lung = tested on: NCI-H522 lung
PC-3 prostate = tested on: PC-3 prostate
HT29 colon = tested on: HT29 colon
OVCAR-3 ovarian = tested on: OVCAR-3 ovarian
SF-268 CNS = tested on: SF-268 CNS
COLO 205 colon = tested on: COLO 205 colon
UACC-257 melanoma = tested on: UACC-257 melanoma
SK-MEL-2 melanoma = tested on: SK-MEL-2 melanoma
MCF7 breast = tested on: MCF7 breast
OVCAR-8 ovarian = tested on: OVCAR-8 ovarian
M14 melanoma = tested on: M14 melanoma
NCI/ADR-RES ovarian = tested on: NCI/ADR-RES ovarian
UACC-62 melanoma = tested on: UACC-62 melanoma
SW-620 colon = tested on: SW-620 colon
K-562 leukemia = tested on: K-562 leukemia
A498 renal = tested on: A498 renal
KM12 colon = tested on: KM12 colon
ACHN renal = tested on: ACHN renal
NCI-H23 lung = tested on: NCI-H23 lung
U251 CNS = tested on: U251 CNS
NCI-H460 lung = tested on: NCI-H460 lung
HCC-2998 colon = tested on: HCC-2998 colon
SNB-19 CNS = tested on: SNB-19 CNS
BT-549 breast = tested on: BT-549 breast
HL-60(TB) leukemia = tested on: HL-60(TB) leukemia
HS 578T breast = tested on: HS 578T breast
NCI-H226 lung = tested on: NCI-H226 lung
SK-OV-3 ovarian = tested on: SK-OV-3 ovarian
RPMI-8226 leukemia = tested on: RPMI-8226 leukemia
OVCAR-4 ovarian = tested on: OVCAR-4 ovarian
DU-145 prostate = tested on: DU-145 prostate
SF-295 CNS = tested on: SF-295 CNS
786-0 renal = tested on: 786-0 renal
TK-10 renal = tested on: TK-10 renal
SF-539 CNS = tested on: SF-539 CNS
LOX IMVI melanoma = tested on: LOX IMVI melanoma
OVCAR-5 ovarian = tested on: OVCAR-5 ovarian
IGROV1 ovarian = tested on: IGROV1 ovarian
MDA-MB-435 = tested on: MDA-MB-435
UO-31 renal = tested on: UO-31 renal
HOP-92 NSCLC = tested on: HOP-92 NSCLC
HCT-15 colon = tested on: HCT-15 colon
HCT-116 colon = tested on: HCT-116 colon
CAKI-1 renal = tested on: CAKI-1 renal
SK-MEL-28 melanoma = tested on: SK-MEL-28 melanoma
RXF 393 renal = tested on: RXF 393 renal
MALME-3M melanoma = tested on: MALME-3M melanoma
EKVX NSCLC = tested on: EKVX NSCLC

## COc1ccc(-c2n[nH]nc2-c2cc(OC)c3c(c2)OCO3)cc1
HOP-62 NSCLC
  GI50: < 0.0135 µM
  TGI: > 68.1 µM
MOLT-4 leukemia
  GI50: 0.0627 µM
  TGI: 5.45 µM
A549 NSCLC
  GI50: 0.0239 µM
  TGI: > 100 µM
CCRF-CEM leukemia
  GI50: 0.0264 µM
  TGI: 14.2 µM
SK-MEL-5 melanoma
  GI50: 0.0267 µM
  TGI: 0.899 µM
SR leukemia
  GI50: < 0.01 µM
  TGI: 17.5 µM
SNB-75 CNS
  GI50: 0.0128 µM
  TGI: 1.72 µM
MDA-MB-231 breast
  GI50: 0.0409 µM
  TGI: 0.437 µM
SN12C renal
  GI50: 0.071 µM
  TGI: 55.6 µM
NCI-H522 lung
  GI50: < 0.01 µM
PC-3 prostate
  GI50: 0.0384 µM
  TGI: > 100 µM
HT29 colon
  GI50: 0.0365 µM
  TGI: 4.29 µM
OVCAR-3 ovarian
  GI50: 0.0101 µM
SF-268 CNS
  GI50: 0.087 µM
  TGI: > 62.3 µM
COLO 205 colon
  GI50: 0.206 µM
  TGI: 1.17 µM
UACC-257 melanoma
  GI50: 20.5 µM
  TGI: > 100 µM
SK-MEL-2 melanoma
  GI50: 0.0184 µM
  TGI: 20.3 µM
MCF7 breast
  GI50: < 0.01 µM
  TGI: > 82.3 µM
OVCAR-8 ovarian
  GI50: 0.035 µM
  TGI: > 52.9 µM
M14 melanoma
  GI50: 0.014 µM
  TGI: 10.5 µM
NCI/ADR-RES ovarian
  GI50: < 0.01 µM
  TGI: 0.982 µM
UACC-62 melanoma
  GI50: < 0.01 µM
  TGI: 49.2 µM
SW-620 colon
  GI50: < 0.0117 µM
  TGI: > 100 µM
K-562 leukemia
  GI50: < 0.01 µM
  TGI: > 100 µM
A498 renal
  GI50: < 0.01 µM
  TGI: 0.0693 µM
KM12 colon
  GI50: < 0.015 µM
  TGI: 8.27 µM
ACHN renal
  GI50: 0.0648 µM
  TGI: > 100 µM
NCI-H23 lung
  GI50: 0.0314 µM
  TGI: 29.6 µM
U251 CNS
  GI50: 0.0359 µM
  TGI: 15.6 µM
NCI-H460 lung
  GI50: 0.0143 µM
  TGI: 13.2 µM
HCC-2998 colon
  GI50: 0.069 µM
  TGI: 2.4 µM
SNB-19 CNS
  GI50: 0.0441 µM
  TGI: > 100 µM
BT-549 breast
  GI50: 0.0847 µM
  TGI: 28.9 µM
HL-60(TB) leukemia
  GI50: 0.0252 µM
  TGI: 0.336 µM
HS 578T breast
  GI50: 0.0219 µM
  TGI: 3.72 µM
NCI-H226 lung
  GI50: 0.83 µM
  TGI: > 100 µM
SK-OV-3 ovarian
  GI50: 0.0294 µM
  TGI: 2.08 µM
RPMI-8226 leukemia
  GI50: 0.0319 µM
  TGI: 32.5 µM
OVCAR-4 ovarian
  GI50: 1.25 µM
  TGI: > 100 µM
DU-145 prostate
  GI50: 0.0328 µM
  TGI: 1.19 µM
SF-295 CNS
  GI50: < 0.01 µM
  TGI: 0.429 µM
786-0 renal
  GI50: 0.0423 µM
  TGI: 28.5 µM
TK-10 renal
  GI50: 15.7 µM
  TGI: > 100 µM
SF-539 CNS
  GI50: 0.0154 µM
  TGI: 0.0449 µM
LOX IMVI melanoma
  GI50: 0.0649 µM
  TGI: 16 µM
OVCAR-5 ovarian
  GI50: 0.0665 µM
  TGI: > 100 µM
IGROV1 ovarian
  GI50: 0.0289 µM
  TGI: > 100 µM
MDA-MB-435
  GI50: < 0.01 µM
UO-31 renal
  GI50: 0.0505 µM
  TGI: 73 µM
HOP-92 NSCLC
  GI50: 0.16 µM
  TGI: 22.2 µM
HCT-15 colon
  GI50: < 0.01 µM
  TGI: > 36.2 µM
HCT-116 colon
  GI50: 0.017 µM
CAKI-1 renal
  GI50: 0.0237 µM
  TGI: 58.5 µM
SK-MEL-28 melanoma
  GI50: 0.0444 µM
  TGI: > 89.7 µM

## COc1ccc2[nH]c(C(=O)OCc3ccc4cccc(O)c4n3)cc2c1
HOP-62 NSCLC
  GI50: 1.52 µM
  TGI: 3.5 µM
MOLT-4 leukemia
  GI50: 0.641 µM
  TGI: 2.99 µM
A549 NSCLC
  GI50: 1.81 µM
  TGI: 3.92 µM
CCRF-CEM leukemia
  GI50: 0.148 µM
  TGI: 1.11 µM
SK-MEL-5 melanoma
  GI50: 1.76 µM
  TGI: 3.18 µM
SR leukemia
  GI50: 0.251 µM
  TGI: 1.25 µM
SNB-75 CNS
  GI50: 1.06 µM
  TGI: 2.3 µM
MDA-MB-231 breast
  GI50: 1.17 µM
  TGI: 2.49 µM
SN12C renal
  GI50: 1.18 µM
  TGI: 2.54 µM
NCI-H522 lung
  GI50: 1.39 µM
  TGI: 3.25 µM
PC-3 prostate
  GI50: 0.247 µM
  TGI: 1.32 µM
HT29 colon
  GI50: 0.775 µM
  TGI: 2.77 µM
OVCAR-3 ovarian
  GI50: 1.11 µM
  TGI: 2.41 µM
SF-268 CNS
  GI50: 1.65 µM
  TGI: 3.13 µM
RXF 393 renal
  GI50: 1.06 µM
  TGI: 2.31 µM
COLO 205 colon
  GI50: 1.29 µM
  TGI: 2.91 µM
UACC-257 melanoma
  GI50: 2.02 µM
  TGI: 5.68 µM
SK-MEL-2 melanoma
  GI50: 1.74 µM
  TGI: 3.72 µM
MCF7 breast
  GI50: 0.723 µM
  TGI: 2.79 µM
OVCAR-8 ovarian
  GI50: 1.38 µM
  TGI: 4.04 µM
M14 melanoma
  GI50: 0.564 µM
  TGI: 2.04 µM
NCI/ADR-RES ovarian
  GI50: 1.94 µM
  TGI: 5.91 µM
UACC-62 melanoma
  GI50: 1.31 µM
  TGI: 2.6 µM
SW-620 colon
  GI50: 1.2 µM
  TGI: 3.15 µM
K-562 leukemia
  GI50: 0.283 µM
  TGI: 2.66 µM
A498 renal
  GI50: 2.65 µM
  TGI: 5.57 µM
KM12 colon
  GI50: 1.94 µM
  TGI: 3.9 µM
MALME-3M melanoma
  GI50: 1.52 µM
  TGI: 2.89 µM
ACHN renal
  GI50: 0.69 µM
  TGI: 1.98 µM
NCI-H23 lung
  GI50: 1.44 µM
  TGI: 3.07 µM
U251 CNS
  GI50: 1.67 µM
  TGI: 3.15 µM
NCI-H460 lung
  GI50: 2.24 µM
  TGI: 5.41 µM
EKVX NSCLC
  GI50: 1.51 µM
  TGI: 2.89 µM
HCC-2998 colon
  GI50: 1.43 µM
  TGI: 2.92 µM
SNB-19 CNS
  GI50: 2.83 µM
  TGI: 11.2 µM
BT-549 breast
  GI50: 1.69 µM
  TGI: 3.74 µM
HL-60(TB) leukemia
  GI50: 1.18 µM
  TGI: 3.4 µM
HS 578T breast
  GI50: 1.78 µM
  TGI: 4.6 µM
NCI-H226 lung
  GI50: 1.4 µM
  TGI: 3.14 µM
SK-OV-3 ovarian
  GI50: 11.1 µM
  TGI: 23.2 µM
RPMI-8226 leukemia
  GI50: 0.288 µM
  TGI: 0.874 µM
OVCAR-4 ovarian
  GI50: 1.83 µM
  TGI: 3.55 µM
DU-145 prostate
  GI50: 1.53 µM
  TGI: 2.93 µM
SF-295 CNS
  GI50: 4.98 µM
  TGI: 18.1 µM
786-0 renal
  GI50: 1.68 µM
  TGI: 3.31 µM
TK-10 renal
  GI50: 1.81 µM
  TGI: 3.27 µM
SF-539 CNS
  GI50: 1.27 µM
  TGI: 2.53 µM
LOX IMVI melanoma
  GI50: 0.779 µM
  TGI: 2.14 µM
OVCAR-5 ovarian
  GI50: 1.45 µM
  TGI: 2.96 µM
IGROV1 ovarian
  GI50: 0.751 µM
  TGI: 2.08 µM
MDA-MB-435
  GI50: 1.52 µM
  TGI: 3.13 µM
UO-31 renal
  GI50: 0.551 µM
  TGI: 1.99 µM
HOP-92 NSCLC
  GI50: 0.209 µM
  TGI: 1.42 µM
HCT-15 colon
  GI50: 0.757 µM
  TGI: 3.18 µM
HCT-116 colon
  GI50: 0.39 µM
  TGI: 1.85 µM
CAKI-1 renal
  GI50: 1.13 µM
  TGI: 2.49 µM
SK-MEL-28 melanoma
  GI50: 1.61 µM
  TGI: 3 µM
